Laboratory results reported in publication PMC4941645, “Oxidative Stress Induced by Pt(IV) Pro-drugs Based on the Cisplatin Scaffold and Indole Carboxylic Acids in Axial Position” (Scientific Reports, 2016).

How the values were obtained:
[1] = tested on: BxPC3 pancreatic carcinoma cells; test: MTT cytotoxicity test, BxPC3; assay type: cell-based, human; conditions: BxPC3, 72 h, MTT, ± S.D.
Protocol: (§1) The cytotoxic activity of the complexes and of the uncoordinated ligands was evaluated by the MTT test on a panel of human tumor cell lines containing examples of pancreatic (BxPC3), colorectal (HCT-15), breast (MCF-7), cervical (A431), and lung (A549) cancers as well as of melanoma (A375). For comparison purposes, the cytotoxicity of cisplatin was evaluated under the same experimental conditions.
(§2) Cisplatin was dissolved in 0.9% NaCl solution.
(§3) Human breast (MCF-7), colon (HCT-15), lung (A549) and pancreatic (BxPC3) carcinoma cell lines together with melanoma (A375) cells were obtained from American Type Culture Collection (ATCC, Rockville, MD). The human ovarian cancer cell line 2008 and its cisplatin resistant variant, C13*, were kindly provided by Prof. G. Marverti (Department of Biomedical Science of Modena University, Italy). Human cervical carcinoma (A431) cells were kindly provided by Prof. F. Zunino (Division of Experimental Oncology B, Istituto Nazionale dei Tumori, Milan, Italy). Cell lines were maintained in the logarithmic phase at 37 °C in a 5% carbon dioxide atmosphere using the following culture media containing 10% fetal calf serum (Euroclone, Milan, Italy), antibiotics (50 units/mL penicillin and 50 μg/mL streptomycin) and 2 mM L-glutamine: (i) RPMI-1640 medium (Euroclone) for 2008, C13*, MCF-7, HCT-15, A431 and BxPC3 cells, (ii) F-12 HAM’S (Sigma Chemical Co.) for A549 cells, iii) DMEM (Sigma Chemical Co.) for A375 cells.
(§4) The growth inhibitory effect toward tumor cells was evaluated by means of the MTT assay. Briefly, (3–8) × 10^3 cells/well, dependent upon the growth characteristics of the cell line, were seeded in 96-well microplates in growth medium (100 μL). After 24 h, the medium was removed and replaced with fresh medium containing the compound to be studied at the appropriate concentration. Triplicate cultures were established for each treatment. After 24, 48, or 72 h, each well was treated with 10 μL of a 5 mg/mL MTT saline solution and, after 5 h of incubation, 100 μL of a sodium dodecylsulfate (SDS) solution in 0.01 M HCl was added. After an overnight incubation, cell growth inhibition was detected by measuring the absorbance of each well at 570 nm using a Bio-Rad 680 microplate reader. The mean absorbance for each drug dose was expressed as a percentage of the control, untreated well absorbance and plotted vs drug concentration. The IC50 values, the drug concentrations that decrease the mean absorbance at 570 nm to 50% of that of untreated control wells, were calculated from the dose–response curves with the four-parameter logistic model (4PL). The final value is the mean ± S.D. of at least three independent experiments performed in triplicate.

[2] = tested on: HCT-15 colon carcinoma cells; test: MTT cytotoxicity test, HCT-15; assay type: cell-based, human; conditions: HCT-15, 72 h, MTT, ± S.D.
Protocol: as §1, §2, §3, §4

[3] = tested on: MCF-7 breast carcinoma cells; test: MTT cytotoxicity test, MCF-7; assay type: cell-based, human; conditions: ± S.D.
Protocol: as §1, §2, §3, §4

[4] = tested on: A431 cervical carcinoma cells; test: MTT cytotoxicity test, A431; assay type: cell-based, human; conditions: ± S.D.
Protocol: as §1, §2, §3, §4

[5] = tested on: A549 lung carcinoma cells; test: cells; conditions: A549, 72 h
Protocol: as §1, §2, §3, §4

A375 melanoma cells [6] = test: MTT cytotoxicity test, A375; assay type: cell-based, human; conditions: ± S.D.
Protocol: as §1, §2, §3, §4

[7] = tested on: panel of human tumor cell lines (BxPC3, HCT-15, MCF-7, A431, A549, A375); test: MTT cytotoxicity, mean over panel of human tumor cell lines; assay type: cell-based; conditions: for cytotoxic effect (in words): free ligands; for IC50: mean over the six cell lines of Table 1, 72 h
Protocol: as §1, §4

A375 cells = test: ROS production (CM-H2DCFDA probe); assay type: cell-based, human; conditions: A375, 12.5 μM, compared with antimycin positive control
Protocol: ROS are products of normal cell metabolism but their levels can be increased upon exposure to toxic agents or interference with the cellular redox network. […] Consequently, cellular ROS levels upon treatment with equal doses (12.5 μM) of the different platinum complexes were monitored in A375 cancer cells by using the peroxide-sensitive fluorescent probe CM-H2DCFDA (5-(and-6)-chloromethyl-2′,7′-dichlorodihydrofluorescein diacetate, acetyl ester). Antimycin, a classical inhibitor of the mitochondrial respiratory chain at the level of complex III, was used as a positive control.
Figure 8 ROS production in A375 cells. Cells were preincubated in PBS/10 mM glucose medium for 20 min at 37 °C in the presence of 10 μM CM-DCFDA and then treated with equimolar doses (12.5 μM) of indole propionic acid Pt(IV) derivatives (panel A) or indole acetic acid Pt(IV) derivatives (panel B). The fluorescence of DCF was measured.
The production of ROS was measured in A375 cells (10^4 per well) grown for 24 h in 96-well plates in DMEM medium without phenol red (Sigma Chemical Co.). Cells were then washed with PBS and loaded with 10 μM 5-(and-6)-chloromethyl-2′,7′-dichlorodihydrofluorescein diacetate, acetyl ester (CM–H2DCFDA) (Molecular Probes-Invitrogen) for 25 min in the dark. Afterwards, cells were washed with PBS and incubated with increasing concentrations of the tested complexes. The fluorescence increase was estimated with a plate reader (Fluoroskan Ascent FL, Labsystem, Finland) at 485 (excitation) and 527 nm (emission). Antimycin (3 μM, Sigma Chemical Co.), a potent inhibitor of Complex III in the electron transport chain, was used as positive control.

[8] = tested on: 2008 ovarian cancer cells; test: MTT cytotoxicity test, cisplatin-sensitive 2008; assay type: cell-based, human; conditions: 2008 cisplatin-sensitive, 72 h, ± S.D.
Protocol: The cytotoxic properties of the complexes were also evaluated in a pair of tumor cell lines suitably selected for their sensitivity and resistance to cisplatin (adenocarcinoma cells 2008/C13^*). Cross-resistance profiles were evaluated by means of the resistance factor (RF), defined as the ratio between IC50 values calculated for the resistant cells and those obtained with the sensitive ones (Table 2). The phenomenon of cisplatin resistance is multifactorial in nature. Nevertheless, the main molecular mechanisms involved in drug resistance in C13* cancer cells have largely been identified. Indeed, in this cell line resistance is correlated to high cellular glutathione and thioredoxin reductase levels, reduced cellular drug uptake and enhanced repair of DNA damage. […] The RF values calculated for all derivatives were six- to nine-fold lower than that of cisplatin, clearly indicating the absence of cross-resistance.
as §2
Triplicate cultures were established for each treatment.

[9] = tested on: C13* cisplatin-resistant ovarian cancer cells; test: MTT cytotoxicity test, cisplatin-resistant C13*; assay type: cell-based, human; conditions: for IC50: C13* cisplatin-resistant, 72 h, MTT, ± S.D.; for RF (resistance factor): IC50 resistant (C13*) / parent line (2008)
Protocol: The cytotoxic properties of the complexes were also evaluated in a pair of tumor cell lines suitably selected for their sensitivity and resistance to cisplatin (adenocarcinoma cells 2008/C13^*). Cross-resistance profiles were evaluated by means of the resistance factor (RF), defined as the ratio between IC50 values calculated for the resistant cells and those obtained with the sensitive ones (Table 2). The phenomenon of cisplatin resistance is multifactorial in nature.
as §2, §3, §4

[10] = Log P octanol/water, shake flask method with ICP-MS; assay type: physicochemical; conditions: n-octanol / 0.9% NaCl water, Pt by ICP-MS
Protocol: Partition coefficients (logP values) for octanol/water partition were determined in order to examine whether a correlation exists between lipophilicity and accumulation into cells. The log P values obtained (Table 3) give the trend in lipophilicity as mono indole acid complex < succinate complex < acetate complex < bis indole acid complex < benzoate complex for both the IAA and the IPA series.
The logP values of the Pt(IV) compounds were determined using the shake flask method. The respective Pt(IV) complex was dissolved in 0.9% NaCl (w/v) ultrapure water (presaturated with n-octanol). The solutions were sonicated and filtered to remove undissolved Pt(IV) compounds. The initial Pt concentrations were determined by ICP-MS. Subsequently, the Pt(IV) solutions were added to an equal volume of n-octanol (presaturated with 0.9% NaCl (w/v) ultrapure water). The heterogeneous mixtures were shaken vigorously for 30 min before centrifuging at 4000 rpm for 30 min to achieve phase separation. The final Pt concentration in the aqueous phase was determined again by ICP-MS. The logarithm of the ratio of Pt concentrations in the organic and aqueous phases was calculated to determine the logP values. All experiments were done in duplicate.

[11] = tested on: nuclear DNA of A375 cells; test: Nuclear DNA platination (GF-AAS); assay type: cell-based, human; conditions: A375, 5 μM, 24 h
Protocol: It is well known that the main cellular target of platinum complexes is the DNA, and platination of nuclear DNA is a critical step in triggering the death of cancer cells by platinum-based drugs. On this basis, the amount of platinum bound to nuclear DNA was also assessed in A375 cells treated with the tested Pt(IV) complexes. Cells were treated for 24 h with 5 μM of the tested complexes, the nuclear DNA was isolated and the amount of Pt in each sample was determined by means of GF-AAS analysis. The results expressed as pg Pt/ng DNA are depicted in Fig. 7. […] In particular, 1P led to a roughly 60-fold higher DNA platination level with respect to cisplatin.
A375 cells (3 × 10^6) were seeded in 10 cm Petri dishes in 10 mL of culture medium. Subsequently, cells were treated with the tested complexes (5 μM) for 24 h. The DNA was extracted and purified by a commercial spin column quantification kit (Qiagen DNeasy Blood and Tissue Kit). Only highly purified samples (A260/A230 ≅ 1.8 and […]) were included for analysis to avoid any artifacts. The samples were completely dried and re-dissolved in 200 μL of Milli-Q water (18.2 MΩ) for at least 20 min at 65 °C in a shaking thermo-mixer, mineralized and analyzed for total Pt content by GF-AAS as described above.

A375 melanoma cells [12] = test: Cellular accumulation of Pt (GF-AAS); assay type: cell-based, human
[13] = Homo sapiens, MCF7, MCF-7, 72 h
[14] = Homo sapiens, A-431, A431, 72 h
[15] = Homo sapiens, A-375, A375, 72 h

| SMILES | ROS production (in words) (A375 cells) | IC50 [1] | IC50 [2] | IC50 ([3]; MCF-7, 72 h) | IC50 ([4]; A431, 72 h) | IC50 ([5]; MTT, ± S.D.) | IC50 (A375 melanoma cells [6]; A375, 72 h) | IC50 [8] | IC50 [9] | RF (resistance factor) [9] | Log P (octanol/water) [10] | IC50 [7] | other results |
| --- | --- | --- | --- | --- | --- | --- | --- | --- | --- | --- | --- | --- | --- |
| O=C(O)Cc1c[nH]c2ccccc12 [IAA, indole-3-acetic acid, reference compound] | no effect on cellular basal ROS levels |  |  |  |  |  |  |  |  |  |  |  | IC50 ([1]; Homo sapiens, BXPC-3): > 50 µM; IC50 ([2]; Homo sapiens): > 50 µM; IC50 [3, 13]: > 50 µM; IC50 [4, 14]: > 50 µM; IC50 ([5]; Homo sapiens): > 50 µM; IC50 (A375 melanoma cells [6]; [15]): > 50 µM; cytotoxic effect (in words) [7]: did not elicit any significant cytotoxic effect |
| CC(=O)[O][Pt]([NH2])([NH2])([Cl])([Cl])[O]C(=O)CCc1c[nH]c2ccccc12 [Complex 5P] |  | 19.5 ± 0.68 µM | 14.03 ± 0.14 µM | 21.01 ± 0.06 µM | 5.35 ± 2.11 µM | 3.62 ± 0.18 µM | 3.15 ± 0.02 µM | 18 ± 1.33 µM | 21.9 ± 2.48 µM | 1.2 | −0.080 ± 0.04 | 11.1 µM | DNA platination (in words) [11]: least effective |
| N.N.O=C(Cc1c[nH]c2ccccc12)[O][Pt]([Cl])([Cl])[O]C(=O)Cc1c[nH]c2ccccc12 [Complex 2A] | less effective compared to the positive control | 3.32 ± 0.21 µM | 25.2 ± 0.89 µM | 3.7 ± 0.29 µM | 13.3 ± 0.84 µM | 3.75 ± 1.31 µM | 1.85 ± 0.23 µM | 11 ± 2.14 µM | 3.44 ± 0.59 µM | 0.3 | −0.068 ± 0.07 |  |  |
| O=C(O)CCc1c[nH]c2ccccc12 [IPA, indole-3-propionic acid, reference compound] | no effect on cellular basal ROS levels |  |  |  |  |  |  |  |  |  |  |  | IC50 ([1]; Homo sapiens, BXPC-3): > 50 µM; IC50 ([2]; Homo sapiens): > 50 µM; IC50 [3, 13]: > 50 µM; IC50 [4, 14]: > 50 µM; IC50 ([5]; Homo sapiens): > 50 µM; IC50 (A375 melanoma cells [6]; [15]): > 50 µM; cytotoxic effect (in words) [7]: did not elicit any significant cytotoxic effect |
| N.N.[Cl][Pt][Cl] [cisplatin] |  | 10.2 ± 1.65 µM | 15.5 ± 2.48 µM | 7.6 ± 2.96 µM | 1.96 ± 0.84 µM | 12.6 ± 0.81 µM | 2.06 ± 1.01 µM | 2.26 ± 1.06 µM |  | 10.5 |  | 8.33 µM |  |
| [NH2][Pt]([NH2])([Cl])([Cl])([O]C(=O)CCC(=O)O)[O]C(=O)CCc1c[nH]c2ccccc12 [Complex 4P] |  | > 50 µM | 42 ± 1.92 µM | 40.56 ± 0.08 µM | 29.2 ± 4.19 µM | 11.8 ± 1.06 µM | 8.66 ± 4.03 µM | > 50 µM | > 50 µM |  | −0.100 ± 0.05 | 30.4 µM | cellular platinum accumulation (in words) (A375 melanoma cells [12]; A375, 1.5 and 3 μM, 6 and 24 h): lowest platinum accumulation; cellular uptake level, times lower than cisplatin (A375 melanoma cells [12]; A375, GF-AAS): about 7; DNA platination (in words) [11]: least effective |
| N.N.O=C(CCc1c[nH]c2ccccc12)[O][Pt]([Cl])([Cl])[O]C(=O)CCc1c[nH]c2ccccc12 [Complex 2P] |  | 2.56 ± 0.65 µM | 14 ± 1.56 µM | 5.54 ± 0.67 µM | 3 ± 0.35 µM | 2.87 ± 1.59 µM | 1.35 ± 0.75 µM | 8.37 ± 2.12 µM | 2.91 ± 0.64 µM | 0.4 | −0.051 ± 0.06 | 4.9 µM |  |
